Patent US6887873B2, “Triazine derivatives and their application as antitelomerase agents” (Aventis Pharma S.A., priority 2001, dated 2005)
Where two headings read alike, the source gives them in different places.

Assays:
[1] = tested on: human telomerease (HL60 cell extract); assay: Antitelomerease activity: extension of oligonucleotide TS followed by PCR amplification, with HL60 extract; format: biochemical; details: read-out: TRAP IC50
Method in brief: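 HL60 CHAPS-lysate extract extends TS primer (15 min, 30 °C) with compound at 10, 1, 0.1 and 0.01 µM, followed by 30-cycle PCR with TS and CXext. Products resolved on 12% acrylamide and quantified; % inhibition versus enzyme control and blank, IC50 read from semilog plot.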

[2] = tested on: A549 cells; assay: Cytotoxic activity on human tumour line A549, neutral red, 96 hours; format: cell-based; details: read-out: Cytotox. A549 IC50
Method: The cytotoxic biological activity on human tumour lines is determined according to the following experimental protocol:
The human cell lines A549 are obtained from ATCC (American Type Culture Collection, Rockville, USA). The A549 cells are cultured in a layer in a culture flask in RPMI 1640 medium containing L-glutamine at 2 mM, penicillin 200 U/ml, streptomycin 200 μg/ml and supplemented with 10% heat-inactivated foetal calf serum. The KB cells are cultured in a layer in a culture flask in Dulbelco's medium containing L-glutamine at 2 mM, penicillin 200 U/ml, streptomycin 200 μg/ml and supplemented with 10% heat-inactivated foetal calf serum.
The cells at the exponential growth phase are trypsinized, washed in 1×PBS and are inoculated in 96-well microplates (Costar) in an amount of 4×10^4 cells/ml for A549 and of 1.5×10^4 cells/ml (0.2 ml/well) and then incubated for 96 hours in the presence of variable concentrations of product to be studied (10, 1, 0.1 and 0.01 μM, each point in quadruplicate). 16 hours before the end of the incubation, 0.02% final of neutral red is added to each well. At the end of the incubation, the cells are washed with 1×PBS and lysed with 1% sodium lauryl sulphate. The cellular incorporation of the dye, which reflects cellular growth, is evaluated by spectro-photometry at a wavelength of 540 nm for each sample with the aid of a Dynatech MR5000 reading apparatus.
For each compound concentration tested, the results are expressed as percentage of inhibition of cellular growth and calculated from the untreated control and the culture medium free of cells (blank) according to the following formula: (compound value−blank value/cell control value−blank value)×100.
The concentration of compound inducing a 50% inhibition of growth (IC50) is determined with the aid of a semilogarithmic graphical representation of the inhibition values obtained as a function of each of the compound concentrations tested.
A compound is considered to be active as cytotoxic agent if the concentration inhibiting the growth of the tumour cells tested by 50% is in particular less than 10 μM.

Structure (SMILES)	IC50 [1] [µM]	IC50 ([2]; Homo sapiens, A549, A549) [µM]	IC50 ([2]; A549) [µM]
CC1=NCCN1c1nc(Nc2ccc3nc(C)cc(N(C)C)c3c2)nc(Nc2ccc3nc(C)cc(N(C)C)c3c2)n1 [Example 148]	1.5	1.5	–
Cc1cc(N)c2cc(Nc3nc(NCc4ccc([N+](C)(C)C)cc4)nc(Nc4ccc5nc(C)cc(N)c5c4)n3)ccc2n1 [Example 60]	3	5.7	–
Cc1cc(N(C)C)c2cc(Nc3nc(Nc4ccc5nc(C)cc(N(C)C)c5c4)nc(N4CCCN(C)CC4)n3)ccc2n1 [Example 135, 2,4-bis(4-dimethylamino-2-methylquinolin-6-yl)amino-6-(1-methylhomopiperazin-4-yl)-[1,3,5]triazine]	0.4	0.07	–
Cc1cc(N)c2cc(Nc3nc(Nc4ccc5nc(C)cc(N)c5c4)nc(OCCN(C)Cc4ccccc4)n3)ccc2n1 [Example 105]	0.24	11.6	–
COc1ccc(CSc2nc(Nc3ccc4nc(C)cc(N)c4c3)nc(Nc3ccc4nc(C)cc(N)c4c3)n2)cc1 [Example 124]	0.9	6.2	–
Cc1cc(N)c2cc(Nc3nc(Nc4ccc5nc(C)cc(N)c5c4)nc(N4CCN(C(=O)c5ccco5)CC4)n3)ccc2n1 [Example 68]	0.3	11.5	–
Cc1cc(N)c2cc(Nc3nc(Nc4ccc5nc(C)cc(N)c5c4)nc(N4CCCC4c4cccnc4)n3)ccc2n1 (centres unmarked) [Example 86]	0.2	18.9	–
Cc1cc(N)c2cc(Nc3nc(Nc4ccc5nc(C)cc(N)c5c4)nc(Sc4ccc5ccccc5n4)n3)ccc2n1 [Example 128, 2,4-bis(4-amino-2-methylquinolin-6-yl)amino-6-(quinolin-2-yl)thio-[1,3,5]triazine]	0.39	2.86	–
Cc1cc(N)c2cc(Nc3nc(Nc4ccc(N5CCNCC5)cc4)nc(Nc4ccc5nc(C)cc(N)c5c4)n3)ccc2n1 [Example 15]	0.19	1.85	–
Cc1cc(N(C)C)c2cc(Nc3nc(NCCCN(C)C)nc(Nc4ccc5nc(C)cc(N(C)C)c5c4)n3)ccc2n1 [Example 1, 2,4-bis(4-dimethylamino-2-methylquinolin-6-yl)amino-6-(3-dimethylaminopropyl)amino-[1,3,5]triazine]	0.55	0.23	–
Cc1cc(N(C)C)c2cc(Nc3nc(Nc4ccc5nc(C)cc(N(C)C)c5c4)nc(N4CCN(CCCN(C)C)CC4)n3)ccc2n1 [Example 136, 2,4-bis(4-dimethylamino-2-methylquinolin-6-yl)amino-6-[1-(3-dimethylaminopropyl)piperazin-4-yl]-[1,3,5]triazine]	0.12	0.026	–
CC(=O)NCCNc1nc(Nc2ccc3nc(C)cc(N(C)C)c3c2)nc(Nc2ccc3nc(C)cc(N(C)C)c3c2)n1 [Example 150]	2.5	2.47	–
Cc1cc(N)c2cc(Nc3nc(Nc4ccc5nc(C)cc(N)c5c4)nc(NC4CN5CCC4CC5)n3)ccc2n1 (centres unmarked) [Example 17, 2,4-bis(4-amino-2-methylquinolin-6-yl)amino-6-(quinuclidin-3-yl)amino-[1,3,5]triazine]	0.1	2.73	–
Cc1cc(N(C)C)c2cc(Nc3nc(Nc4ccc5nc(C)cc(N(C)C)c5c4)nc(N4CCCN(CCCN5CCCC5)CC4)n3)ccc2n1 [Example 139]	0.6	0.045	–
Cc1cc(N(C)C)c2cc(Nc3nc(Nc4ccc5nc(C)cc(N(C)C)c5c4)nc(N4CCC[C@H]4CN4CCCC4)n3)ccc2n1 [Example 149, 2,4-bis(4-dimethylamino-2-methylquinolin-6-yl)amino-6-[2(S)-(pyrrolidin-1-yl)methylpyrrolidin-1-yl]-[1,3,5]triazine]	2.5	0.096	–
CCN(CCN(C)C)c1nc(Nc2ccc3nc(C)cc(N(C)C)c3c2)nc(Nc2ccc3nc(C)cc(N(C)C)c3c2)n1 [Example 146]	0.6	0.175	–

Structure (SMILES)	IC50 [1] [µM]	IC50 ([2]; Homo sapiens, A549, A549) [µM]	IC50 ([2]; A549) [µM]
Cc1cc(N)c2cc(Nc3nc(Nc4ccc5nc(C)cc(N(C)C)c5c4)nc(Nc4ccccc4Cl)n3)ccc2n1 [Example 3]	2.1	6	–
Cc1cc(N)c2cc(Nc3nc(Nc4ccc5nc(C)cc(N)c5c4)nc(NC4CCN(Cc5ccccc5)CC4)n3)ccc2n1 [Example 93]	0.37	9.3	–
Cc1cc(N(C)C)c2cc(Nc3nc(NCc4ccncc4)nc(Nc4ccc5nc(C)cc(N(C)C)c5c4)n3)ccc2n1 [Example 145]	1	–	0.42
Cc1cc(N)c2cc(Nc3nc(Nc4ccc5nc(C)cc(N)c5c4)nc(N(Cc4ccccc4)C4CN5CCC4CC5)n3)ccc2n1 (centres unmarked) [Example 92]	0.43	7.8	–
Cc1cc(N(C)C)c2cc(Nc3nc(Nc4ccc5nc(C)cc(N(C)C)c5c4)nc(N4CCN(c5ccncc5)CC4)n3)ccc2n1 [Example 144, 2,4-bis(4-dimethylamino-2-methylquinolin-6-yl)amino-6-[1-(pyridin-4-yl)piperazin-4-yl]-[1,3,5]triazine]	0.4	0.04	–
Cc1cc(C)nc(Sc2nc(Nc3ccc4nc(C)cc(N)c4c3)nc(Nc3ccc4nc(C)cc(N)c4c3)n2)n1 [Example 127]	0.84	15.9	–
Cc1cc(N)c2cc(Nc3nc(Nc4ccc5nc(C)cc(N)c5c4)nc(Sc4ccccc4Cl)n3)ccc2n1 [Example 118]	1.4	13.7	–
Cc1cc(N(C)C)c2cc(Nc3nc(Nc4ccc5nc(C)cc(N(C)C)c5c4)nc(N4CCN(CCOCCO)CC4)n3)ccc2n1 [Example 141, 2,4-bis(4-dimethylamino-2-methylquinolin-6-yl)amino-6-{[1-2-(2-hydroxyethyl)oxyethyl]piperazin-4-yl}-[1,3,5]triazine]	0.9	0.096	–
Cc1cc(N)c2cc(Nc3nc(Nc4ccc5nc(C)cc(N)c5c4)nc(Sc4ncccn4)n3)ccc2n1 [Example 126]	0.67	11.4	–
Cc1cc(N(C)C)c2cc(Nc3nc(Nc4ccc5nc(C)cc(N(C)C)c5c4)nc(Oc4ccncc4)n3)ccc2n1 [Example 115, 2,4-bis(4-dimethylamino-2-methylquinolin-6-yl)amino-6-(pyridin-4-yl)oxy-[1,3,5]triazine]	0.5	1.6	–
CCCN(CCC)CCN1CCN(c2nc(Nc3ccc4nc(C)cc(N(C)C)c4c3)nc(Nc3ccc4nc(C)cc(N(C)C)c4c3)n2)CC1 [Example 137, 2,4-bis(4-dimethylamino-2-methylquinolin-6-yl)amino-6-[1-(2-dipropylaminoethyl)piperazin-4-yl]-[1,3,5]triazine]	1	0.15	–
Cc1cc(N(C)C)c2cc(Nc3nc(NCC[N+](C)(C)C)nc(Nc4ccc5nc(C)cc(N(C)C)c5c4)n3)ccc2n1 [Example 142]	1	1.56	–
Cc1cc(N(C)C)c2cc(Nc3nc(Nc4ccc5nc(C)cc(N(C)C)c5c4)nc(C4CCN(C)CC4)n3)ccc2n1 [Example 19, 2,4-bis(4-dimethylamino-2-methylquinolin-6-yl)amino-6-(1-methylpiperidin-4-yl)-[1,3,5]triazine]	0.53	0.3	–
Cc1cc(N)c2cc(Nc3nc(Nc4ccc5nc(C)cc(N)c5c4)nc(N4CCN(C5CCCCCCC5)CC4)n3)ccc2n1 [Example 77]	0.48	5.6	–
Cc1cc(N)c2cc(Nc3nc(Nc4ccc5nc(C)cc(N)c5c4)nc(Nc4ccc5nc(C)cc(N)c5c4)n3)ccc2n1 [Example 2, 2,4,6-tris(4-amino-2-methylquinolin-6-yl)amino-[1,3,5]triazine]	0.06	10	–
